Where two headings read alike, the source gives them in different places.
Assays:
[1] = tested on: U87; assay: in vitro antitumor activity, U87; assay type: cell-based; details: U87 (U87-MG brain tumor) cells
[2] = tested on: Colo357-FG; assay: in vitro antitumor activity, Colo357-FG; assay type: cell-based; details: Colo357-FG cells
[3] = tested on: H441; assay: in vitro antitumor activity, H441; assay type: cell-based; details: H441 cells
[4] = tested on: D54; assay: in vitro antitumor activity, D54; assay type: cell-based; details: D54 cells
[5] = 5-mice pilot single-dose pharmacokinetic study, plasma and brain; assay type: in vivo; details: mouse, iv, 5 mg/kg, one hour following a single ~5 mg/kg intravenous dose
Procedure: WP1244 has a relatively high molecular weight (MW) (981.3) having a polyamide moiety attached to the amino sugar. A previous 5-mice pilot study performed with WP1244 confirmed the presence of WP1244 in murine brain tissue, and mean normalized concentrations in the plasma and brain were 283+/−128 ng/mL (range 159-487 ng/mL) and 122+/−67.6 ng/g (range 43-203 ng/g), respectively, one hour following a single ˜5 mg/kg intravenous dose. This pilot single-dose pharmacokinetic study was followed by a complete single-dose pharmacokinetic/biodistribution study which was designed to better elucidate the plasma time-course and tissue biodistribution, particularly in brain tissue, of WP1244. This study involve the use of 55 animals and a dose of 10 mg/kg. The experiment was conducted over a 24 h interval and the methods and results are outlined below.

[6] = acute clinically observable toxicity after IV bolus; assay type: in vivo; details: mice, 10 mg/kg intravenous bolus, up to 24 hours following dosing
Procedure: (§1) Mouse Plasma PK and Brain Distribution Study following Single IV Dose—WP1244 was administered intravenously by rapid IV push to 55 male CD1 mice (Charles River Lab, Wilmington, Mass.) at a dose of 10 mg/kg. Each mouse (mean weight 22.0 g, range 20.7-26.6 g) was given a volume of 0.1 mL of a 2.2 mg/mL WP1244 solution formulated in DMSO:water (50:50, v/v). Five animals were assigned to one of 11 groups segregated by time, spanning the length of the 24-hour study period. One cohort of animals was sacrificed at each of the following time points and mouse plasma and tissues of interest, were harvested for analysis. The time points were as follows: 5, 15, 30, 45 minutes, 1, 2, 4, 6, 8, 12, and 24 hours following administration by intravenous bolus. Samples (plasma and tissues) were frozen and stored at −80° C. until subsequent analysis by LC/MS/MS.

[7] = Mouse Plasma PK and Brain Distribution Study following Single IV Dose; assay type: in vivo, male CD1 mice; design: Mean peak plasma concentration / area-under-the-curve: unit not given here; details: mice, 10 mg/kg IV; for Kp / Vd: iv, 10 mg/kg
Procedure: as §1
Sample preparation and drug isolation (extraction) from plasma utilized the same fundamental approach used in pharmacokinetic and biodistribution studies of other anthracyclines previously conducted by the inventors. Briefly, WP1244 was extracted from a volume (0.1 mL) of mouse plasma using a solid-phase extraction method. Liquid-liquid extraction by a chloroform: 2-propanol (80:20, v/v) mixture was utilized to isolate the analyte from mouse brain tissue. An 8-point plasma extracted calibration curve was created to span a dynamic concentration range of WP1244 of 1-1000 ng/mL (1, 2.5, 10, 25, 50, 100, 500, and 1000 ng/mL) for the quantitative measurement of WP1244 extracted from mouse plasma, while a brain tissue derived calibration curve was utilized for determination of brain tissue concentrations of drug over a range of 10-1000 ng/g tissue. Samples exceeding the dynamic range of the calibration curve were re-analyzed following dilution in extraction buffers.
Quantitative sample analysis was performed by chromatographic separation and identification/quantification using mass spectrometry (LC/MS/MS); the specific instrumentation used was an Agilent HP1100 Series liquid chromatograph in tandem with a Micromass Quattro Micro (Micro2) mass spectrometer. A Phenomenex® Luna C5, 4.6×50 mm, 3.5 μm) analytical column was used for chromatographic separation and peak resolution. As mentioned before, sample analysis utilized the same fundamental validated methods developed previously for the quantitative analysis of other anthracyclines studied by the inventors.

[8] = in vitro IC50, cells not stated; assay type: cell-based; details: cell lines not stated

With `COc1cccc2c1C(=O)c1c(O)c3c(c(O)c1C2=O)C[C@](O)(C(C)=O)C[C@H]3OC1CC(NCc2ccc(NC(=O)c3cc(NC(=O)c4cc(NC(=O)c5cccn5C)cn4C)cn3C)cc2)C(O)C(C)O1` (stereo in doubt) [WP1243] the IC50 ([1]; Homo sapiens, U-87 MG) was 8.3 nM and the IC50 ([2]; COLO 357/FG) was 76.2 nM.
`COc1cccc2c1C(=O)c1c(O)c3c(c(O)c1C2=O)C[C@](O)(C(C)=O)C[C@H]3OC1CC(NCc2ccc(NC(=O)c3cc(NC(=O)c4cc(NC(=O)c5cc(NC=O)cn5C)cn4C)cn3C)cc2)C(O)C(C)O1` (stereo in doubt) [WP1249] showed an IC50 ([1]; Homo sapiens, U-87 MG) of 7.7 nM and an IC50 ([2]; COLO 357/FG) of 51.2 nM.
In the case of `COc1cccc2c1C(=O)c1c(O)c3c(c(O)c1C2=O)C[C@](O)(C(C)=O)C[C@H]3OC1CC(NCc2ccc(NC(=O)c3cc(NC(=O)c4cc(NC(=O)c5cc([N+](=O)[O-])cn5C)cn4C)cn3C)cc2)C(O)C(C)O1` (stereo in doubt) [WP1276], the IC50 ([1]; Homo sapiens, U-87 MG) is reported as 27.8 nM and the IC50 ([2]; COLO 357/FG) is reported as 443 nM.
For `COc1cccc2c1C(=O)c1c(O)c3c(c(O)c1C2=O)C[C@@](O)(C(C)=O)C[C@H]3OC1CC(NC(=O)c2cc(NC(=O)c3cc(NC(=O)c4cccn4C)cn3C)cn2C)C(O)C(C)O1` (stereo in doubt) [WP1277], the IC50 ([1]; Homo sapiens, U-87 MG) was 105 nM and the IC50 ([2]; COLO 357/FG) was 4240 nM.
Compound `COc1cccc2c1C(=O)c1c(O)c3c(c(O)c1C2=O)C[C@@](O)(C(C)=O)C[C@@H]3O[C@H]1C[C@H](N)[C@H](O)[C@H](C)O1` [DNR, reference compound] has an IC50 [3] of 15.9 nM, an IC50 [1] of 143 nM and an IC50 [4] of 231 nM. The IC50 [2] was 46.4 nM.
In the case of `COc1cccc2c1C(=O)c1c(O)c3c(c(O)c1C2=O)C[C@](O)(C(C)=O)C[C@H]3OC1CC(NCc2ccc(NC(=O)c3cc(NC(=O)c4cc(NC(=O)c5ccccn5)cn4C)cn3C)cc2)C(O)C(C)O1` (stereo partly shown) [WP1244], the concentration at 1 h ([5]; brain, read-out: mean normalized concentration in brain) is reported as 122 ng/g, the concentration at 1 h ([5]; brain, read-out: range of normalized concentration in brain) is reported as 43 to 203 ng/g and the concentration at 1 h ([5]; plasma, read-out: mean normalized concentration in plasma) is reported as 283 ng/mL. The concentration at 1 h ([5]; plasma, read-out: range of normalized concentration in plasma) was 159 to 487 ng/mL, the “acute clinically observable toxicity” value [6] was “no acute clinically observable toxicity” and the Kp ([7]; male, CD1, mouse, brain, 0 to 8 hour interval, read-out: fold higher concentration in brain tissue than plasma) was 3 to 4. The Kp ([7]; male, CD1, mouse, brain, over the measured interval (except 5 min timepoint), read-out: brain tissue to plasma concentration ratio) was greater than 1, the concentration at 24 h ([7]; male, CD1, mouse, brain, at 24 hours, read-out: nadir brain tissue concentration) was greater than 100 ng/g and the Vd ([7]; male, CD1, mouse, plasma, 2-compartment model, read-out: volume of distribution Vc) was 0.0097 L/kg. The Vd ([7]; male, CD1, mouse, plasma, 2-compartment model, read-out: volume of distribution Vp) was 0.326 L/kg, the Vd ([7]; male, CD1, mouse, plasma, 2-compartment model, read-out: volume of distribution Vss) was 0.336 L/kg and the clearance ([7]; male, CD1, mouse, plasma, 2-compartment model, read-out: Drug clearance (converted)) was 0.683 mL/min/kg. For the same compound, the concentration at 24 h ([7]; male, CD1, mouse, plasma, 24 hours after IV bolus injection, read-out: mean nadir plasma concentration) was 21.5 ng/mL, the “mean peak concentration in brain tissue” value ([7]; at 15 minutes post dose) was 915 ng/g tissue and the “Mean peak plasma concentration” value ([7]; five minutes after drug administration) was 3.7. The area-under-the-curve ([7]; plasma) was 250, the “time of peak concentration in brain tissue” value ([7]; post dose) was 15 min and the IC50 ([3]; Homo sapiens, NCI-H441) was 0.91 nM. For the same compound, the IC50 ([1]; Homo sapiens, U-87 MG) was 0.2 nM, the “in vitro IC50 values” [8] was “subnanomolar range” and the IC50 ([4]; Homo sapiens) was 1.08 nM. For the same compound, the IC50 ([2]; COLO 357/FG) was 3.1 nM.

From patent US10358439B2, “DNA binding agents with a minor groove binding tail” (Board of Regents, The University of Texas System, priority 2015, dated 2019)
